Read-outs that look alike come from different tables or passages of the source.
What was measured:
[1] = tested on: KRAS G12D mutant AGS cells; assay: Proliferation inhibition of AGS cells, CellTiter-Glo assay; format: cell-based, human
Method in brief: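 AGS cells at 1500 cells/well in F12K + 10% FBS were exposed for 3 days at 37°C to nine 3-fold dilutions from 10 µM top concentration, in duplicate. Viability read by CellTiter-Glo luminescence; IC50 (nM) from dose-response-inhibition fitting.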

[2] = tested on: KRAS G12V mutant NCI-H727 cells; assay: Proliferation inhibition of NCI-H727 cells, 3D CellTiter-Glo assay (Method B); format: cell-based, human; details: Method B, 3D culture with 0.65% methylcellulose, 5 days, CTG, read-out: NCI-H727 IC50/nM
Method in brief: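 Cells grown in 3D medium (RPMI-1640, 10% FBS, 0.65% methylcellulose) overnight, then treated 5 days at 37 °C, 5% CO2 with 9 threefold dilutions from 10 µM top working concentration, duplicate wells. CellTiter-Glo luminescence read; IC50 (nM) fitted by dose-response-inhibition equation.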

[3] = tested on: KRAS G12S mutant A549 cells; assay: Proliferation inhibition of A549 cells, 3D CellTiter-Glo assay; format: cell-based; details: Homo sapiens, A549, 120 h, read-out: A549 IC50/nM
Procedure: A549 cells (Nanjing Kebai Biotechnology Co., Ltd., catalog number CBP60084, adherent, culture medium (F12K Nutrient Mixture+10%FBS (GIBCO, Cat#10091-148) at 37°C, 5%CO2, and 95% humidity.
3D Cell Viability Assay: Cells in the logarithmic growth phase were harvested and counted using a platelet counter. Cell viability was assessed using the trypan blue exclusion method to ensure a viability of over 90%. The 3D cell culture medium was prepared by adding 1% MC (methylcellulose, Sigma, Cat#M0512) F-12K medium and 10% FBS. The cell concentration was adjusted to approximately 7407 cells/mL using the 3D medium, and the methylcellulose (MC) content was set to 0.65%. Then, 135 µL of cell suspension was added to each 96-well clear, flat-bottomed, black-walled plate (Greiner, Cat#655096). The cells in the 96-well plates were cultured overnight at 37°C with 5% CO2.
Drug preparation for IC50 assay: A 10-fold drug solution was prepared using culture medium. […] of the drug solution was added to each well of a 96-well plate seeded with cells to achieve a working concentration of up to 10 µM, with a 3× dilution, and 9 concentrations. 2 replicate wells for each drug concentration were set. The cells in the drug-treated 96-well plates were cultured at 37°C and 5% CO^2 for additional5 days, then CTG assay (CellTiter-Glo® Luminescent Cell Viability Assay (Promega, Cat#G7573)) were performed.
The cell plate was equilibrated to room temperature for 30 minutes and the CTG reagent was thawed. 75 µL of CTG solution was added to each well for detection, and the plate was shaken on an orbital shaker for 5 minutes to lyse the cells. The cell plate was placed at room temperature for 25 minutes to stabilize the cryo-luminescence signal and the cryo-luminescence value was read (EnVision® multi-plate reader, PerkinElmer#2105).
Data was analyzed using GraphPad Prism software. The dose-response-inhibition equation was used to fit the data to obtain the dose-response curve, and the IC50 value (nM) was calculated accordingly. [formula]

Pharmacokinetics in mice = details: mouse, plasma, po, 20 mg/kg
Procedure: Male CD-1 mice, aged 6-8 weeks, were purchased from Zhejiang Vital River Laboratory Animal Co., Ltd.
For the PO administration group, compounds were formulated in 0.5% Tween 80 and 99.5% (0.5%MC (400cp)) vehicle or 0.5%MC (400cp) vehicle to a final concentration of 1 mg/mL or 2 mg/mL for each compound. The drug formulation was administered to CD-1 mice via gavage at a dose of 10 mL/kg. Blood samples were collected from the submandibular vein or other suitable means at 15 min, 30 min, 1 h, 2 h, 4 h, 6 h, 8 h, and 24 h after administration. The blood samples were centrifuged at low temperature for 5 minutes, and the plasma was collected and stored at -80°C for analysis.
10 µL of plasma sample was taken, 200 µL of methanol containing an internal standard as a precipitant was added to precipitate plasma proteins, the compounds to be tested in the plasma was extracted, centrifuged at low temperature, and 10 µL of the supernatant was injected. The drug concentration in blood plasma was analyzed by LC-MS/MS. The pharmacokinetic parameters were calculated using Winnonlin based on the blood drug concentration data at different time points.

[4] = Homo sapiens, AGS, 72 h, 3 days, CTG, read-out: AGS IC50/nM

Row | Structure (SMILES) | IC50 [1, 4] [nM] | IC50 ([2]; Homo sapiens, NCI-H727, 120 h) [nM] | IC50 [3] [nM] | IC50 ([1]; Homo sapiens, AGS, 72 h, read-out: AGS IC50/nM, 3 days, CTG) [nM] | AUC(0-t) at 8 h (Pharmacokinetics in mice) [ng·h/mL] | IC50 ([1]; 3 days, CTG, read-out: AGS IC50/nM) [nM] | IC50 [2] [nM]
1 | CN1CC[C@H](C(F)F)[C@](C)(COc2nc(N3CCOC[C@@](C)(O)C3)c3cc(C(F)(F)F)c(-c4cccc5sc(N)c(C#N)c45)c(F)c3n2)C1 (atropisomer, axis not shown) [Example 5A, (S)-2-amino-4-(2-(((3S,4S)-4-(difluoromethyl)-1,3-dimethylpiperidine-3-yl)methoxy)-8-fluoro-4-((S)-6-hydroxy-6-methyl-1,4-oxazol-4-yl)-6-(trifluoromethyl)quinazoline-7-yl)benzo[b]thiophene-3-carbonitrile] | 1.6 | < 1.5 | 16.5 |  |  |  | 
2 | CN1CC/C(=C\F)[C@](C)(COc2nc(N3CCOC[C@@](C)(O)C3)c3cc(C(F)(F)F)c(-c4cccc5sc(N)c(C#N)c45)c(F)c3n2)C1 (atropisomer, axis not shown) [Example 6A, (S)-2-amino-4-(8-fluoro-2-(((S,E)-4-(fluoromethylene)-1,3-dimethylpiperidine-3-yl)methoxy)-4-((S)-6-hydroxy-6-methyl-1,4-oxazol-4-yl)-6-(trifluoromethyl)quinazoline-7-yl)benzo[b]thiophene-3-carbonitrile] | 4.7 | 1.6 | 35.1 |  |  |  | 
3 | CCN1CC/C(=C\F)[C@](C)(COc2nc(N3Cc4c(COC)c(C(=O)N(C)C)nn4CC[C@@H]3C)c3cc(Cl)c(-c4c(F)ccc5sc(N)c(C#N)c45)c(C(F)F)c3n2)C1 (atropisomer, axis not shown) [Example 241A] | 8.3 | 6.5 |  |  | 1660 |  | 
4 | [2H]C([2H])([2H])C([2H])([2H])N1CC/C(=C\F)[C@](C)(COc2nc(N3Cc4c(COC)c(C(=O)N(C)C)nn4CC[C@@H]3C)c3cc(Cl)c(-c4c(F)ccc5sc(N)c(C#N)c45)c(F)c3n2)C1 (atropisomer, axis not shown) [Example 243A] | < 1.5 | < 1.5 |  |  | 9960 |  | 
5 | CCN1CC/C(=C\F)[C@](C)(COc2nc(N3Cc4cc(C(=O)N(C)C)nn4CC[C@@H]3C)c3cc(Cl)c(-c4c(F)ccc5sc(N)c(C#N)c45)c(F)c3n2)C1 (atropisomer, axis not shown) [Example 246A] | < 1.5 | < 1.5 |  |  | 1040 |  | 
6 | CN1CC/C(=C\F)[C@](C)(COc2nc(N3CCCn4nc(C(=O)N(C)C)cc4C3)c3cc(Cl)c(-c4c(F)ccc5sc(N)c(C#N)c45)c(F)c3n2)C1 (atropisomer, axis not shown; (Ra)) [Example 93A, (Ra)-5-(7-(2-amino-3-cyano-5-fluorobenzo[b]thiophene-4-yl)-6-chloro-8-fluoro-2-(((S,E)-4-(fluoromethylene)-1,3-dimethylpiperidine-3-yl)methoxy)quinazoline-4-yl)-N,N-dimethyl-5,6,7,8-tetrahydro-4H-pyrazolo[1,5-a][1,4]diazepine-2-formamide·formate] |  |  | 32.6 |  |  | < 1.5 | 4.1
7 | CN1CC/C(=C\F)[C@](C)(COc2nc(N3CCCn4nc(C(=O)N(C)C)cc4C3)c3cc(C(F)(F)F)c(-c4cccc5sc(N)c(C#N)c45)c(F)c3n2)C1 (single isomer, unassigned) [Example 8A] | 1.5 | 4.4 | 101 |  |  |  | 
8 | CN1CC/C(=C\F)[C@](C)(COc2nc(N3CCCn4nc(C(=O)N(C)C)cc4C3)c3cc(C(F)(F)F)c(-c4c(F)ccc5sc(N)c(C#N)c45)c(F)c3n2)C1 (single isomer, unassigned) [Example 28A] | < 1.5 | 1.8 | 31.2 |  |  |  | 
9 | [2H]C([2H])([2H])N1CC/C(=C\F)[C@](C)(COc2nc(N3Cc4cc(C(=O)N(C)C)nn4CC[C@@H]3C)c3cc(CC)c(-c4c(F)ccc5sc(N)c(C#N)c45)c(F)c3n2)C1 (single isomer, unassigned) [Example 173A] | < 1.5 | < 1.5 | 43.5 |  |  |  | 
10 | [2H]C([2H])([2H])N1CC[C@H](C(F)F)[C@](C)(COc2nc(N3Cc4cc(C(=O)N(C)C)nn4CC[C@@H]3C)c3cc(CC)c(-c4c(F)ccc5sc(N)c(C#N)c45)c(F)c3n2)C1 (single isomer, unassigned) [Example 174A] | < 1.5 | 2.5 | 51.9 |  |  |  | 
11 | CCc1cc2c(N3Cc4cc(C(=O)N(C)C)nn4CC[C@@H]3C)nc(OC[C@]3(C)CN(CC)CC[C@@H]3C(F)F)nc2c(F)c1-c1c(F)ccc2sc(N)c(C#N)c12 (single isomer, unassigned) [Example 176A] | < 1.5 | < 1.5 | 42.6 |  |  |  | 
12 | [2H]C([2H])([2H])N1CC[C@H](C(F)F)[C@](C)(COc2nc(N3CCOC[C@@](C)(O)C3)c3cc(C(F)(F)F)c(-c4c(F)ccc5sc(N)c(C#N)c45)c(F)c3n2)C1 [Example 65A] | 1.5 |  | 26.1 |  |  |  | 

Further lines, with some results ahead:

Row | IC50 [1, 4] [nM] | IC50 ([2]; Homo sapiens, NCI-H727, 120 h) [nM] | IC50 [3] [nM] | IC50 ([1]; Homo sapiens, AGS, 72 h, read-out: AGS IC50/nM, 3 days, CTG) [nM] | Structure (SMILES) | AUC(0-t) at 8 h (Pharmacokinetics in mice) [ng·h/mL] | IC50 ([1]; 3 days, CTG, read-out: AGS IC50/nM) [nM] | IC50 [2] [nM]
13 | < 1.5 | 2.4 | 41.8 |  | [2H]C([2H])([2H])N1CC/C(=C\F)[C@](C)(COc2nc(N3CCCn4nc(C(=O)N(C)C)cc4C3)c3cc(C(F)(F)F)c(-c4c(F)ccc5sc(N)c(C#N)c45)c(F)c3n2)C1 (atropisomer, axis not shown) [Example 68A] |  |  | 
14 | < 1.5 | < 1.5 | 33.8 |  | C[C@H]1CCn2nc(C(=O)N(C)C)cc2CN1c1nc(OC[C@]2(C)CN(C)CC/C2=C\F)nc2c(F)c(-c3cccc4sc(N)c(C#N)c34)c(C(F)(F)F)cc12 (atropisomer, axis not shown) [Example 123A] |  |  | 
15 | < 1.5 | 2.1 | 82.4 |  | C[C@H]1CCn2nc(C(=O)N(C)C)cc2CN1c1nc(OC[C@]2(C)CN(C)CC/C2=C\F)nc2c(F)c(-c3c(F)ccc4sc(N)c(C#N)c34)c(C3CC3)cc12 (single isomer, unassigned) [Example 162A] |  |  | 
16 |  | 3.3 | 86.9 | < 1.52 | CCc1cc2c(N3CCCn4nc(C(=O)N(C)C)c(Cl)c4C3)nc(OC[C@]3(C)CN(C)CC/C3=C\F)nc2c(F)c1-c1c(F)ccc2sc(N)c(C#N)c12 (single isomer, unassigned) [Example 163A] |  |  | 
17 | < 1.5 | < 1.5 | 48 |  | CCc1cc2c(N3Cc4cc(C(=O)N(C)C)nn4CC[C@@H]3C)nc(OC[C@]3(C)CN(C)CC/C3=C\F)nc2c(F)c1-c1c(F)ccc2sc(N)c(C#N)c12 (single isomer, unassigned) [Example 164A] |  |  | 
18 | 13.1 | 2.4 | 40.7 |  | [2H]C([2H])([2H])N1CC[C@H](C(F)F)[C@](C)(COc2nc(N3CCOC[C@@](C)(O)C3)c3cc(C(F)(F)F)c(-c4ccc(F)c5sc(N)c(C#N)c45)c(F)c3n2)C1 [Example 55] |  |  | 
19 | < 1.5 | 2.2 | 23.9 |  | CN1CC/C(=C\F)[C@](C)(COc2nc(N3CCCn4nc(C(=O)N(C)C)c(Cl)c4C3)c3cc(C(F)(F)F)c(-c4cccc5sc(N)c(C#N)c45)c(F)c3n2)C1 [Example 124] |  |  | 
20 | < 1.5 | < 1.5 | 40.3 |  | CN1CC/C(=C\F)[C@](C)(COc2nc(N3CCCn4nc(C(=O)N(C)C)c(C#N)c4C3)c3cc(C(F)(F)F)c(-c4c(F)ccc5sc(N)c(C#N)c45)c(F)c3n2)C1 [Example 150] |  |  | 
21 | < 1.5 | < 1.5 | 11.1 |  | CN1CC/C(=C\F)[C@](C)(COc2nc(N3CCCn4nc(C(=O)N(C)C)c(Cl)c4C3)c3cc(C(F)(F)F)c(-c4c(F)ccc5sc(N)c(C#N)c45)c(F)c3n2)C1 [Example 160] |  |  | 
